Assay results taken from patent EP0835868A1, “2-Aryl-3-aminoaryloxynaphthyl compounds, intermediates, compositions and methods” (ELI LILLY AND COMPANY, priority 1996, dated 1998).
Counter-ions that a name gives are not always drawn. Marks after values point to notes of the source that are not given here.

Columns and labels:
[1] = tested on: female Sprague Dawley rats; test: Estrogen deprivation model in ovariectomized rats: serum cholesterol analysis; type: in vivo; conditions: daily for 4 days, OVX rats, decrease versus ovariectomized controls
Protocol: (§1) In the examples illustrating the methods, an estrogen deprivation model was used in which effects of different treatments upon circulating lipids were determined.
(§2) Seventy-five day old female Sprague Dawley rats (weight range of 200 to 225g) are obtained from Charles River Laboratories (Portage, MI). The animals are either bilaterally ovariectomized (OVX) or exposed to a Sham surgical procedure at Charles River Laboratories, and then shipped after one week. Upon arrival, they are housed in metal hanging cages in groups of 3 or 4 per cage and have ad libitum access to food (calcium content approximately 0.5%) and water for one week. Room temperature is maintained at 22.2° ± 1.7° C with a minimum relative humidity of 40%. The photoperiod in the room is 12 hours light and 12 hours dark. Dosing Regimen Tissue Collection. After a one week acclimation period (therefore, two weeks post-OVX) daily dosing with test compound is initiated. 17a-ethynyl estradiol or the test compound are given orally, unless otherwise stated, as a suspension in 1% carboxymethylcellulose or dissolved in 20% cyclodextrin. Animals are dosed daily for 4 days. Following the dosing regimen, animals are weighed and anesthetized with a ketamine: Xylazine (2:1, V:V) mixture and a blood sample is collected by cardiac puncture. The animals are then sacrificed by asphyxiation with CO2, the uterus is removed through a midline incision, and a wet uterine weight is determined.
(§3) Cholesterol Analysis. Blood samples are allowed to clot at ambient temperature for 2 hours, and serum is obtained following centrifugation for 10 minutes at 3000 rpm. Serum cholesterol is determined using a Boehringer Mannheim Diagnostics high performance cholesterol assay. Briefly, the cholesterol is oxidized to cholest-4-en-3-one […]. The hydrogen peroxide is then reacted with phenol and 4-aminophenazone in the presence of peroxidase to produce a p-quinone imine dye, which is read spectrophotemetrically at 500 nm. Cholesterol concentration is then calculated against a standard curve. The entire assay is automated using a Biomek Automated Workstation. Uterine Eosinophil Peroxidase (EPO) Assay. Uteri are kept at 4° C until time of enzymatic analysis. The uteri are then homogenized in 50 volumes of 50 mM Tris buffer (pH - 8.0) containing 0.005% Triton X-100. Upon addition of 0.01% hydrogen peroxide and 10 mM O-phenylenediamine (final concentrations) in Tris buffer, increase in absorbance is monitored for one minute at 450 nm. The presence of eosinophils in the uterus is an indication of estrogenic activity of a compound. The maximal velocity of a 15 second interval is determined over the initial, linear portion of the reaction curve. Source of Compound: 17a-ethynyl estradiol was obtained from Sigma Chemical Co., St. Louis, MO.

[2] = tested on: female Sprague Dawley rats; test: Estrogen deprivation model in ovariectomized rats: wet uterine weight; type: in vivo; conditions: daily for 4 days, OVX rats, % increase versus the ovariectomized controls
Protocol: as §1, §2

Eosinophil peroxidase = test: Uterine Eosinophil Peroxidase (EPO) Assay on uteri of dosed ovariectomized rats; type: in vivo, Sprague Dawley rats; conditions: daily for 4 days, OVX rats
Text: as §2, §3

Structure (SMILES)	Serum Cholesterol (% Dec.) ([1]; 0.1 mg/kg PO)	Uterine Weight (% Inc.) ([2]; 0.1 mg/kg PO)	Uterine Eosinophil (Vmax) (Eosinophil peroxidase; 0.1 mg/kg PO)	Serum Cholesterol (% Dec.) ([1]; 1.0 mg/kg PO)	Serum Cholesterol (% Dec.) ([1]; 10.0 mg/kg PO)	Uterine Weight (% Inc.) ([2]; 1.0 mg/kg PO)	Uterine Weight (% Inc.) ([2]; 10.0 mg/kg PO)	Uterine Eosinophil (Vmax) (Eosinophil peroxidase; 1.0 mg/kg PO)	Uterine Eosinophil (Vmax) (Eosinophil peroxidase; 10.0 mg/kg PO)	Serum Cholesterol (% Dec.) ([1]; 0.01 mg/kg PO)	Uterine Weight (% Inc.) ([2]; 0.01 mg/kg PO)	Uterine Eosinophil (Vmax) (Eosinophil peroxidase; 0.01 mg/kg PO)
C#C[C@]1(O)CC[C@H]2[C@@H]3CCc4cc(O)ccc4[C@H]3CC[C@@]21C [EE2, 17-a-Ethynyl-estradiol, reference compound]	75.9* % Dec.	96.0* % Inc.	54.6*	–	–	–	–	–	–	–	–	–
O=C(CN1CCCCC1)Nc1ccc(Oc2c(-c3ccc(O)cc3)ccc3cc(O)ccc23)cc1 [Example 2, 1-[4-[2-(1-Piperidinyl)acetylamido]phenoxy-2-(4-hydroxyphenyl)-6-hydroxynaphthalene Hydrochloride]	27 % Dec.	13.6 % Inc.	1.8	66.4* % Dec.	57.6* % Dec.	59.0* % Inc.	107.0* % Inc.	11.7	71.1*	–	–	–
Oc1ccc(-c2ccc3cc(O)ccc3c2Oc2ccc(NCCN3CCCCC3)cc2)cc1 [Example 4, 1-[4-[2-(1-Piperidinyl)ethylamino]phenoxy]-2-(4-hydroxyphenyl)-6-hydroxynaphthalene]	59.9* % Dec.	39.8* % Inc.	4.5	75.3* % Dec.	–	25.4 % Inc.	–	5.4	–	20.8* % Dec.	7.1	2.7
